Source: patent US8691761B2, “Somatostatin receptor 2 antagonists” (priority 2006, dated 2014)
Bridge positions count the residues as written; N and C are the ends. Square brackets hold non-standard residues; d marks the D form. Peptide text beside a SMILES is read from it. * marks the point of attachment. dPhe(4-NHCONH2) = NC(=O)Nc1ccc(C[C@@H](N)C(=O)O)cc1; Phe(4-NHCONH2) = NC(=O)Nc1ccc(C[C@H](N)C(=O)O)cc1; Phe(4-Cl) = N[C@@H](Cc1ccc(Cl)cc1)C(=O)O; X1 = NC(=O)N[C@@H](Cc1ccc(Cl)cc1)C(=O)*; 2Nal = N[C@@H](Cc1ccc2ccccc2c1)C(=O)O

Experiments:
Assay in all cases: Receptor autoradiography, displacement of 125I-[Leu8,D-Trp22,Tyr25]-SRIF-28 from membrane pellet sections
Format in all cases: binding
hSSTR2 = molecular target: T1, hSSTR2 (Homo sapiens, UniProt P30874); conditions: for IC50: Table 3, mean ± SEM when N ≧ 3, read-out: sst2 binding affinity (IC50)
T1 construct: expressed in transfected cells; host or cells: CHO-K1 or CCL39 cells
Protocol: (§1) Generally, recombinant cells expressing the receptor are washed and homogenized to prepare a crude protein homogenate in a suitable buffer. In a typical assay, an amount of protein from the cell homogenate is placed into a small volume of an appropriate assay buffer at an appropriate pH. Candidate substances, such as potential SRIF agonists and antagonists, are added to the admixture in convenient concentrations, and the interaction between the candidate substance and the receptor polypeptide is monitored.
(§2) In vitro Bioassay: The effects of the various somatostatin analogs were tested in vitro for their ability to bind to isolated cloned receptors expressed on CHO-K1 cells and CCL39 cells. The molecular cloning of the genes encoding multiple somatostatin receptor subtypes permitted the individual expression of these receptors in mammalian cells and the characterization of their respective pharmacological profiles.
(§3) CHO-K1 cells were grown in Ham's F-12 medium, and CCL39 cells were grown in Dulbecco's modified Eagle's medium/Ham's F-12(1:1) mix, supplemented with 10% fetal bovine serum, 100 U/ml penicillin and 100 μg/ml streptomycin, in humidified air containing 5% CO2 at 37° C. Cells were washed twice with and scraped into ice-cold 0.05 M Tris-HCl (pH 7.4), collected by centrifugation, and homogenized using a rotor/stator/system in the same buffer. After centrifugation at 120 g for 5 min at 4° C., the supernatant was collected and centrifuged again at 48,000 g for 30 min at 4° C. The resulting pellet was resuspended in ice-cold Tris buffer, transferred into a microfuge tube, and centrifuged at 20,000 g for 15 min at 4° C. After withdrawal of the supernatant, the membrane pellet was stored at −80° C.
(§4) Receptor autoradiography was performed on 20 μm thick cryostat sections of the membrane pellets, mounted on microscope slides, and then stored at −20° C. […] Increasing concentrations of the unlabeled peptide were used ranging from 0.1-1000 nM. […] IC50 values were calculated after quantification of the data using a computer-assisted image processing system as known in this art.
(§5) The numbers in parentheses indicate the number of times the particular binding test was carried out.
(§6) Receptor autoradiography. Cell membrane pellets were prepared as previously described, and stored at −80° C. Receptor autoradiography was performed on 20-μm thick cryostat (Microm HM 500, Walldorf, Germany) sections of the membrane pellets, mounted on microscope slides, and then stored at −20° C. […] After a brief dip in distilled water to remove excess salts, the sections were dried quickly and exposed for 1 week to Kodak BioMax MR film. IC50 values were calculated after quantification of the data using a computer-assisted image processing system as described previously. […] (Reubi, J. C. “In vitro identification of vasoactive intestinal peptide receptors in human tumors: Implications for tumor imaging.” J. Nucl. Med. 1995, 36, 1846-1853).
(§7) To investigate their ssts binding properties, the peptides were tested for their ability to bind to cryostat sections from membrane pellets of cells expressing the five human ssts (Table 3).

hSSTR5 = molecular target: T2, hSSTR5 (Homo sapiens, UniProt P35346); conditions: Table 3; mean ± SEM when N ≧ 3; read-out: sst5 binding affinity (IC50)
T2 construct: expressed in transfected cells; host or cells: CHO-K1 or CCL39 cells
Protocol: as §1, §2, §3, §4, §5, §6, §7

hSSTR4 = molecular target: T3, hSSTR4 (Homo sapiens, UniProt P31391); conditions: Table 3; mean ± SEM when N ≧ 3; read-out: sst4 binding affinity (IC50)
T3 construct: expressed in transfected cells; host or cells: CHO-K1 or CCL39 cells
Protocol: as §1, §2, §3, §4, §5, §6, §7

hSSTR1 = molecular target: T4, hSSTR1 (Homo sapiens, UniProt P30872); conditions: Table 3; mean ± SEM when N ≧ 3; read-out: sst1 binding affinity (IC50)
T4 construct: expressed in transfected cells; host or cells: CHO-K1 or CCL39 cells
Protocol: as §1, §2, §3, §4, §5, §6, §7

hSSTR3 = molecular target: T5, hSSTR3 (Homo sapiens, UniProt P32745); conditions: Table 3; mean ± SEM when N ≧ 3; read-out: sst3 binding affinity (IC50)
T5 construct: expressed in transfected cells; host or cells: CHO-K1 or CCL39 cells
Protocol: as §1, §2, §3, §4, §5, §6, §7

T3 sequence (P31391 whole entry): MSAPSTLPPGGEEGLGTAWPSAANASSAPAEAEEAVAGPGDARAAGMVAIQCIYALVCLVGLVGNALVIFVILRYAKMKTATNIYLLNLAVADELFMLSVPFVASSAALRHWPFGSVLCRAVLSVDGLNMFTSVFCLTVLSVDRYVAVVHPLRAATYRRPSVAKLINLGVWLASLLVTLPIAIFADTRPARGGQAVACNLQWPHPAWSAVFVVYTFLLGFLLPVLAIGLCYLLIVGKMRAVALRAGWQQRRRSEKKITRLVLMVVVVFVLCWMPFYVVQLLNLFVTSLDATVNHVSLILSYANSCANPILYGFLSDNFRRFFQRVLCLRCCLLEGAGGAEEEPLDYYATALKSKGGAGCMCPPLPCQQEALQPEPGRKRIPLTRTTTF
T1 sequence (P30874 whole entry): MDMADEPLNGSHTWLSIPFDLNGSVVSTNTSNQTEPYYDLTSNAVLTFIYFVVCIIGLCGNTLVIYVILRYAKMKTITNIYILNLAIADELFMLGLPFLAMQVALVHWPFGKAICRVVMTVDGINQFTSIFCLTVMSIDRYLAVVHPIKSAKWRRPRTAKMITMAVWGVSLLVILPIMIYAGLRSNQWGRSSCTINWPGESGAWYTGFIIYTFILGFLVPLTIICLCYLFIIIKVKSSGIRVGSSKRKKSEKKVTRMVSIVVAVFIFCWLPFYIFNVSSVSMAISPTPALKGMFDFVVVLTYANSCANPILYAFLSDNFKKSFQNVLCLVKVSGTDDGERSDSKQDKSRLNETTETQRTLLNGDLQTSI
T2 sequence (P35346 whole entry): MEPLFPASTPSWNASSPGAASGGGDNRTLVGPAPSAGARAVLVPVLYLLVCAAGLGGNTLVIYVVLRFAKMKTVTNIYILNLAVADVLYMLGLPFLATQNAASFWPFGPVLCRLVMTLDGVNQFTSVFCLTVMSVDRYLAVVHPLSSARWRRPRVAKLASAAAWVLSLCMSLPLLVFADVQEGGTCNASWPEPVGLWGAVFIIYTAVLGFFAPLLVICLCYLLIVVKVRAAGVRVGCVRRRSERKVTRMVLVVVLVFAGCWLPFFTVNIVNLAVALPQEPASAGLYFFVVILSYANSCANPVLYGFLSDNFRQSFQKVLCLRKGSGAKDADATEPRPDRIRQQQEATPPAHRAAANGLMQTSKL
T5 sequence (P32745 whole entry): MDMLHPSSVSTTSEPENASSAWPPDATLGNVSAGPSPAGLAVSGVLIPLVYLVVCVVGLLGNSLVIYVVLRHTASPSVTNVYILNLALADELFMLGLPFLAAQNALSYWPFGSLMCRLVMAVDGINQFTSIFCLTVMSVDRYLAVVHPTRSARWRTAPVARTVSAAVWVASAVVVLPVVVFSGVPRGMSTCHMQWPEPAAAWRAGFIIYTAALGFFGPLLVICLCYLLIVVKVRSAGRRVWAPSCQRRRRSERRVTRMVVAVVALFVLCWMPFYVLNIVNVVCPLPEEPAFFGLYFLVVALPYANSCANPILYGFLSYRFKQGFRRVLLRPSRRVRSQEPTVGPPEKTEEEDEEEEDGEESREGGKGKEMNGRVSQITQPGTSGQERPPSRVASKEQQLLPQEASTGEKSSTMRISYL
T4 sequence (P30872 whole entry): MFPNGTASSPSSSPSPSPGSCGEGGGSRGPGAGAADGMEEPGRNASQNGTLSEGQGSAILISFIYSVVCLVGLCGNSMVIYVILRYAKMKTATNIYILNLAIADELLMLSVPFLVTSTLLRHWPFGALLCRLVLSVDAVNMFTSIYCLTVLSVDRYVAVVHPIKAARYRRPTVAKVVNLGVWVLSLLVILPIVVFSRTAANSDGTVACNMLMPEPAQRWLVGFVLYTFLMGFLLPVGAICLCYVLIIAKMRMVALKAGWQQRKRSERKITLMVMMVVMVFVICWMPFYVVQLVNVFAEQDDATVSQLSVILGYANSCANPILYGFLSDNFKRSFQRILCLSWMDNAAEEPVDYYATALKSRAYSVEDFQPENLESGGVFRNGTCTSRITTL

Row | Structure (SMILES) | IC50 (hSSTR2) [nM] | IC50 (hSSTR5) [nM] | IC50 (hSSTR4) [nM] | IC50 (hSSTR1) [nM] | IC50 (hSSTR3) [nM] | loss of binding affinity for sst2 as compared to 7 (hSSTR2) [fold]
1 | C[C@@H](O)[C@@H]1NC(=O)[C@H](CCCCN)NC(=O)[C@@H](Cc2c[nH]c3ccccc23)NC(=O)[C@H](Cc2ccc(NC(N)=O)cc2)NC(=O)[C@H](NC(=O)[C@@H](N)Cc2ccc(Cl)cc2)CSSC[C@@H](C(=O)N[C@@H](CC2CCCCC2)C(N)=O)NC1=O [compound 18, H2N-Cpa-c[DCys-Aph(Cbm)-DTrp-Lys-Thr-Cys]-Cha-NH2] | 4.1 ± 0.9 | 247 ± 66 | > 1000 | > 1000 | 255 ± 79 | –
2 | C[C@@H](O)[C@@H]1NC(=O)[C@H](CCCCN)NC(=O)[C@@H](Cc2c[nH]c3ccccc23)NC(=O)[C@H](Cc2ccc(NC(N)=O)cc2)NC(=O)[C@H](NC(=O)[C@H](Cc2ccc(Cl)cc2)NC(N)=O)CSSC[C@@H](C(=O)N[C@@H](Cc2ccc3ccccc3c2)C(N)=O)NC1=O [compound 13, Cbm-Cpa-c[DCys-Aph(Cbm)-DTrp-Lys-Thr-Cys]-2Nal-NH2] (X1-[dC][Phe(4-NHCONH2)][dW]KTC[2Nal]-NH2; disulfide 1-6) | 23 ± 4.3 | 111 ± 17 | 136 ± 7.5 | > 1000 | 54 ± 15 | –
3 | C[C@@H](O)[C@@H]1NC(=O)[C@H](CCCCN)NC(=O)[C@@H](Cc2c[nH]c3ccccc23)NC(=O)[C@H](Cc2ccc(NC(=O)NO)cc2)NC(=O)[C@H](NC(=O)[C@@H](N)Cc2ccc(Cl)cc2)CSSC[C@@H](C(=O)N[C@@H](Cc2ccc3ccccc3c2)C(N)=O)NC1=O [compound 24, H2N-Cpa-c[DCys-Aph(CONH—OH)-DTrp-Lys-Thr-Cys]-2Nal-NH2] | 9.3 ± 1.4 | 426 ± 189 | 813 ± 152 | > 1000 | 120 ± 45 | –
4 | CC(C)C[C@@H]1NC(=O)[C@H](NC(=O)[C@@H](N)Cc2ccc(Cl)cc2)CSSC[C@@H](C(=O)N[C@@H](Cc2ccc3ccccc3c2)C(N)=O)NC(=O)[C@H]([C@@H](C)O)NC(=O)[C@H](CCCCN)NC(=O)[C@@H](Cc2c[nH]c3ccccc23)NC1=O [compound 11, H2N-Cpa-c[DCys-Leu-DTrp-Lys-Thr-Cys]-2Nal-NH2] (H-[Phe(4-Cl)][dC]L[dW]KTC[2Nal]-NH2; disulfide 2-7) | 58 ± 21 | 657 ± 299 | 908 ± 138 | > 1000 | 340 ± 77 | 10
5 | C[C@@H](O)[C@@H]1NC(=O)[C@H](CCCCN)NC(=O)[C@@H](Cc2c[nH]c3ccccc23)NC(=O)[C@H](Cc2ccc(NC(N)=O)cc2)NC(=O)[C@H](NC(=O)[C@@H](N)Cc2ccc(Cl)cc2)CSSC[C@@H](C(=O)N[C@H](Cc2ccc(NC(N)=O)cc2)C(N)=O)NC1=O [compound 20, H2N-Cpa-c[DCys-Aph(Cbm)-DTrp-Lys-Thr-Cys]-DAph(Cbm)-NH2] | 5.4 | 191 ± 49 | 800 ± 295 | > 1000 | 328 ± 69 | –
6 | C[C@@H](O)[C@@H]1NC(=O)[C@H](CCCCN)NC(=O)[C@@H](Cc2c[nH]c3ccccc23)NC(=O)[C@H](Cc2ccc(NC(N)=O)cc2)NC(=O)[C@H](NC(=O)[C@@H](N)Cc2ccc(Cl)cc2)CSSC[C@@H](C(=O)N[C@H](Cc2ccc(NC(N)=O)cc2)C(=O)NCC(=O)O)NC1=O [compound 22, H2N-Cpa-c[DCys-Aph(Cbm)-DTrp-Lys-Thr-Cys]-DAph(Cbm)-GlyOH] (H-[Phe(4-Cl)][dC][Phe(4-NHCONH2)][dW]KTC[dPhe(4-NHCONH2)]G-OH; disulfide 2-7) | 52 ± 4.7 | 810 ± 200 | > 1000 | > 1000 | 661 ± 115 | –
